Reference: the NIST ThermoML archive (doi:10.1021/je700707y)
Several values for one entry are separate records, joined by “and”; a condition that tells them apart may be missing. Identical values can stand only once.

Legend:
[1] = 101.33 kPa, Liquid, Vibrating tube method
[2] = wn = mass fraction of the nth substance listed; conditions: 101 kPa, Liquid, Vibrating tube method, w2 = 0.001

CCCC[N+]1(C)CCCC1.FC(F)(F)C(F)(F)[P-](F)(F)(F)(C(F)(F)C(F)(F)F)C(F)(F)C(F)(F)F
[1]
Conditions | mass density [kg/m3]
293.15 K | 1588.1
303.15 K | 1577.3
313.15 K | 1566.8
323.15 K | 1556.4
333.15 K | 1545.9
343.15 K | 1535.5
353.15 K | 1525.1
363.15 K | 1514.7

CCn1cc[n+](C)c1.O=S(=O)([N-]S(=O)(=O)C(F)(F)F)C(F)(F)F
[1]
Conditions | mass density
293.15 K | 1522.9 kg/m3 and 1523.4 kg/m3
298.15 K | 1517.9 kg/m3
303.15 K | 1512.9 kg/m3 and 1513.4 kg/m3
308.15 K | 1507.9 kg/m3
313.15 K | 1502.9 kg/m3 and 1503.4 kg/m3
318.15 K | 1497.9 kg/m3
323.15 K | 1492.9 kg/m3 and 1493.4 kg/m3
328.15 K | 1488 kg/m3
333.15 K | 1483 kg/m3 and 1483.5 kg/m3
338.15 K | 1478 kg/m3
343.15 K | 1473 kg/m3 and 1473.7 kg/m3
353.15 K | 1463.8 kg/m3
363.15 K | 1454 kg/m3

CCn1cc[n+](C)c1.O=S(=O)([N-]S(=O)(=O)C(F)(F)F)C(F)(F)F + O
[2]
Conditions | mass density [kg/m3]
293.15 K | 1520
298.15 K | 1515
303.15 K | 1510
308.15 K | 1504.9
313.15 K | 1499.8
318.15 K | 1494.8
323.15 K | 1489.8
328.15 K | 1484.8
333.15 K | 1479.7
338.15 K | 1474.7
343.15 K | 1469.7

CCCCn1cc[n+](C)c1.O=S(=O)([O-])C(F)(F)F [1-butyl-3-methylimidazolium trifluoromethanesulfonate]
[1]
Conditions | mass density [kg/m3]
293.15 K | 1301.3
303.15 K | 1293.4
313.15 K | 1285.6
323.15 K | 1277.7
333.15 K | 1269.9
343.15 K | 1262.3
353.15 K | 1254.5
363.15 K | 1246.9

CCCCCC[n+]1ccn(C)c1.O=S(=O)([N-]S(=O)(=O)C(F)(F)F)C(F)(F)F
[1]
Conditions | mass density [kg/m3]
293.15 K | 1375.1
303.15 K | 1366
313.15 K | 1356.9
323.15 K | 1347.9
333.15 K | 1338.8
343.15 K | 1329.8
353.15 K | 1320.9
363.15 K | 1311.9

CCCCCCCCCCn1cc[n+](C)c1.O=S(=O)([N-]S(=O)(=O)C(F)(F)F)C(F)(F)F
[1]
Conditions | mass density [kg/m3]
293.15 K | 1282.4
303.15 K | 1273.8
313.15 K | 1265.3
323.15 K | 1256.8
333.15 K | 1248.3
343.15 K | 1239.9
353.15 K | 1231.4
363.15 K | 1223.1

CCCCCCCCCCCCCC[P+](CCCCCC)(CCCCCC)CCCCCC.O=S(=O)([N-]S(=O)(=O)C(F)(F)F)C(F)(F)F
[1]
Conditions | mass density [kg/m3]
293.15 K | 1067.6
303.15 K | 1060.3
313.15 K | 1052.9
323.15 K | 1045.7
333.15 K | 1038.6
343.15 K | 1031.5
353.15 K | 1024.4
363.15 K | 1017.3

CCCCCCCCn1cc[n+](C)c1.O=S(=O)([N-]S(=O)(=O)C(F)(F)F)C(F)(F)F
[1]
Conditions | mass density [kg/m3]
293.15 K | 1324.5
303.15 K | 1315.8
313.15 K | 1307
323.15 K | 1298.2
333.15 K | 1289.5
343.15 K | 1280.8
353.15 K | 1272.1
363.15 K | 1263.5

CCCCn1cc[n+](C)c1.F[B-](F)(F)F [1-butyl-3-methylimidazolium tetrafluoroborate]
[1]
Conditions | mass density
293.15 K | 1203.8 kg/m3 and 1204.9 kg/m3
298.15 K | 1200 kg/m3 and 1201.1 kg/m3
303.15 K | 1196.2 kg/m3 and 1197.4 kg/m3
308.15 K | 1192.4 kg/m3 and 1193.8 kg/m3
313.15 K | 1188.9 kg/m3 and 1190.1 kg/m3
318.15 K | 1185.4 kg/m3 and 1186.5 kg/m3
323.15 K | 1181.3 kg/m3 and 1182.7 kg/m3
328.15 K | 1177.9 kg/m3 and 1179 kg/m3
333.15 K | 1174.1 kg/m3 and 1175.3 kg/m3
338.15 K | 1170.5 kg/m3 and 1171.7 kg/m3
343.15 K | 1166.9 kg/m3 and 1168 kg/m3

CCCCCC[n+]1ccn(C)c1.FC(F)(F)C(F)(F)[P-](F)(F)(F)(C(F)(F)C(F)(F)F)C(F)(F)C(F)(F)F
[1]
Conditions | mass density [kg/m3]
293.15 K | 1557.1
298.15 K | 1551.8
303.15 K | 1546.4
313.15 K | 1535.7
323.15 K | 1525
333.15 K | 1514.3
343.15 K | 1503.6
353.15 K | 1493
363.15 K | 1482.4
